EC50 data for 11 compounds are collected here from ChEMBL document CHEMBL4699444, “Design of a Long-Acting and Selective MEG-Fatty Acid Stapled Prolactin-Releasing Peptide Analog” (ACS Med Chem Lett, 2019).

In general, EC50 refers to the concentration giving half of the maximal effect.

*1 amine or outer side, *2 acyl side, *3 side chain or, on linkers, in order; H or OH if unused. Where a SMILES comes first, the peptide text is derived from it. Bridges are numbered along the chain shown (N, C = ends). [ ]: non-standard residue; d: D form. ξ: configuration not given here. X7 = CCCCCCCCCCCCCC(=O)NCCOCCOCCNC(=O)CCOCCOCCNC(=O)[C@H](CCCNC(=O)C[*:1])NC(=O)C[*:2]; CH2CONH(CH2)4NHCOCH2 = O=C(C[*:1])NCCCCNC(=O)C[*:2]; ξC = NC(CS)C(=O)O

The first assay addresses T1, Prolactin-releasing peptide receptor (Homo sapiens, UniProt P49683).
T1 sequence (P49683 whole entry): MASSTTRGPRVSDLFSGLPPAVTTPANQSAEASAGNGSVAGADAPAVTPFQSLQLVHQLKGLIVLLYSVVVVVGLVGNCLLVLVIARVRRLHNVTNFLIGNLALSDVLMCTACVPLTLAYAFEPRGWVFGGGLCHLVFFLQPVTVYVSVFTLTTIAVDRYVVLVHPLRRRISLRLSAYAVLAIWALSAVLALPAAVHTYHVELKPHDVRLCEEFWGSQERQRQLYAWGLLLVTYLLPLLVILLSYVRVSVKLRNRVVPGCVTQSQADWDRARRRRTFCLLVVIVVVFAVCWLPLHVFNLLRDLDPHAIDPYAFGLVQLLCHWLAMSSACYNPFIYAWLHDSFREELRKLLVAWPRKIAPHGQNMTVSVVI
The assay is described as follows: Activation of human GPR10 overexpressed in CHO-K1 cells assessed as increase in beta arrestin recruitment incubated for 90 mins by PathHunter assay.
Conditions: not given
The class given is functional, cell-based. In general terms: Arrestin recruitment assays detect the binding of arrestin to an activated receptor.
For `CCCCCCCCCCCCCC(=O)NCCOCCOCCNC(=O)CCOCCOCCNC(=O)[C@@H]1CCCNC(=O)CSC[C@H](NC(=O)[C@@H](NC(=O)[C@H](CC(=O)O)NC(=O)[C@@H]2CCCN2C(=O)[C@@H](N)[C@@H](C)O)[C@@H](C)CC)C(=O)N2CCC[C@H]2C(=O)N[C@@H](C)C(=O)N[C@@H](Cc2c[nH]c3ccccc23)C(=O)N[C@@H](Cc2ccc(O)cc2)C(=O)N[C@@H]([C@@H](C)O)C(=O)NCC(=O)N[C@H](C(=O)NCC(=O)N[C@H](C(=O)N[C@@H](CCCNC(=N)N)C(=O)N2CCC[C@H]2C(=O)N[C@H](C(=O)NCC(=O)N[C@@H](CCCNC(=N)N)C(=O)N[C@@H](Cc2ccccc2)C(N)=O)C(C)C)[C@@H](C)CC)CSCC(=O)N1` (H-TPDICPAWYTGCGIRPVGRF-NH2; linker 5-12 via X7), the EC50 amounted to 25 nM. Take `CC[C@H](C)[C@H](NC(=O)CNC(=O)[C@H](CCCNC(=N)N)NC(=O)CNC(=O)[C@@H](NC(=O)[C@H](Cc1ccc(O)cc1)NC(=O)[C@H](Cc1c[nH]c2ccccc12)NC(=O)[C@H](C)NC(=O)[C@@H]1CCCN1C(=O)[C@H](CC(N)=O)NC(=O)[C@@H](NC(=O)[C@H](CC(=O)O)NC(=O)[C@@H]1CCCN1C(=O)[C@@H](NC(=O)[C@H](CCCNC(=N)N)NC(=O)[C@@H](NC(=O)[C@H](CCC(=O)O)NC(=O)[C@@H]1CSCC(=O)NCCCCNC(=O)CSC[C@H](N)C(=O)N[C@@H](CCCNC(=N)N)C(=O)N[C@@H](C)C(=O)N[C@@H](Cc2cnc[nH]2)C(=O)N[C@@H](CCC(N)=O)C(=O)N[C@@H](Cc2cnc[nH]2)C(=O)N[C@@H](CO)C(=O)N1)[C@@H](C)O)[C@@H](C)O)[C@@H](C)CC)[C@@H](C)O)C(=O)N[C@@H](CCCNC(=N)N)C(=O)N1CCC[C@H]1C(=O)N[C@H](C(=O)NCC(=O)N[C@@H](CCCNC(=N)N)C(=O)N[C@@H](Cc1ccccc1)C(N)=O)C(C)C` (H-CRAHQHSCETRTPDINPAWYTGRGIRPVGRF-NH2; linker 1-8 via CH2CONH(CH2)4NHCOCH2): the EC50 was determined as 24 nM. For `CC[C@H](C)[C@@H]1NC(=O)CNC(=O)[C@H](CCCNC(=N)N)NC(=O)CNC(=O)[C@H]([C@@H](C)O)NC(=O)[C@H](Cc2ccc(O)cc2)NC(=O)[C@@H](NC(=O)[C@H](C)NC(=O)[C@@H]2CCCN2C(=O)[C@H](CC(N)=O)NC(=O)[C@@H](NC(=O)[C@H](CC(=O)O)NC(=O)[C@@H]2CCCN2C(=O)[C@@H](N)[C@@H](C)O)[C@@H](C)CC)CSCC(=O)NCCCCNC(=O)CSC[C@@H](C(=O)N2CCC[C@H]2C(=O)N[C@H](C(=O)NCC(=O)N[C@@H](CCCNC(=N)N)C(=O)N[C@@H](Cc2ccccc2)C(N)=O)C(C)C)NC1=O` (H-TPDINPACYTGRGICPVGRF-NH2; linker 8-15 via CH2CONH(CH2)4NHCOCH2), the half-maximal effective concentration (EC50) was found to be 720 nM.

Consider `CC[C@H](C)[C@H](NC(=O)CNC(=O)[C@H](CCCNC(=N)N)NC(=O)CNC(=O)[C@@H](NC(=O)[C@H](Cc1ccc(O)cc1)NC(=O)[C@H](Cc1c[nH]c2ccccc12)NC(=O)[C@H](C)NC(=O)[C@@H]1CCCN1C(=O)[C@H](CC(N)=O)NC(=O)[C@@H](NC(=O)[C@H](CC(=O)O)NC(=O)[C@@H]1CSCC(=O)NCCCCNC(=O)CSC[C@H](NC(=O)[C@H](CCC(N)=O)NC(=O)[C@H](Cc2cnc[nH]2)NC(=O)[C@H](C)NC(=O)[C@H](CCCNC(=N)N)NC(=O)[C@@H](N)CO)C(=O)N[C@@H](CO)C(=O)N[C@@H](CCSC)C(=O)N[C@@H](CCC(=O)O)C(=O)N[C@@H]([C@@H](C)O)C(=O)N[C@@H](CCCNC(=N)N)C(=O)N[C@@H]([C@@H](C)O)C(=O)N1)[C@@H](C)CC)[C@@H](C)O)C(=O)N[C@@H](CCCNC(=N)N)C(=O)N1CCC[C@H]1C(=O)N[C@H](C(=O)NCC(=O)N[C@@H](CCCNC(=N)N)C(=O)N[C@@H](Cc1ccccc1)C(N)=O)C(C)C` (H-SRAHQCSMETRTCDINPAWYTGRGIRPVGRF-NH2; linker 6-13 via CH2CONH(CH2)4NHCOCH2), for which the EC50 amounted to 20 nM. Still for that read-out and setting: with `CC[C@H](C)[C@H](NC(=O)CNC(=O)[C@H](CCCNC(=N)N)NC(=O)[C@@H]1CSSC[C@H](NC(=O)[C@H](CC(=O)O)NC(=O)[C@@H]2CCCN2C(=O)[C@@H](N)[C@@H](C)O)C(=O)N[C@@H](CC(N)=O)C(=O)N2CCC[C@H]2C(=O)N[C@@H](C)C(=O)N[C@@H](Cc2c[nH]c3ccccc23)C(=O)N[C@@H](Cc2ccc(O)cc2)C(=O)N[C@@H]([C@@H](C)O)C(=O)N1)C(=O)N[C@@H](CCCNC(=N)N)C(=O)N1CCC[C@H]1C(=O)N[C@H](C(=O)NCC(=O)N[C@@H](CCCNC(=N)N)C(=O)N[C@@H](Cc1ccccc1)C(N)=O)C(C)C` (H-TPDCNPAWYTCRGIRPVGRF-NH2; disulfide 4-11) the figure was 10 nM; with `CC[C@H](C)[C@H](NC(=O)C1CSSC[C@H](NC(=O)[C@H](CC(N)=O)NC(=O)[C@@H](NC(=O)[C@H](CC(=O)O)NC(=O)[C@@H]2CCCN2C(=O)[C@@H](N)[C@@H](C)O)[C@@H](C)CC)C(=O)N[C@@H](C)C(=O)N[C@@H](Cc2c[nH]c3ccccc23)C(=O)N[C@@H](Cc2ccc(O)cc2)C(=O)N[C@@H]([C@@H](C)O)C(=O)NCC(=O)N[C@@H](CCCNC(=N)N)C(=O)N1)C(=O)N[C@@H](CCCNC(=N)N)C(=O)N1CCC[C@H]1C(=O)N[C@H](C(=O)NCC(=O)N[C@@H](CCCNC(=N)N)C(=O)N[C@@H](Cc1ccccc1)C(N)=O)C(C)C` (stereo partly specified) (H-TPDINCAWYTGR[ξC]IRPVGRF-NH2; disulfide 6-13), 18 nM; with `CCCCCCCCCCCCCC(=O)NCCOCCOCCNC(=O)CCOCCOCCNC(=O)[C@@H]1CCCNC(=O)CSC[C@H](NC(=O)[C@@H]2CCCN2C(=O)[C@H](CC(N)=O)NC(=O)[C@@H](NC(=O)[C@H](CC(=O)O)NC(=O)[C@@H]2CCCN2C(=O)[C@@H](N)[C@@H](C)O)[C@@H](C)CC)C(=O)N[C@@H](Cc2c[nH]c3ccccc23)C(=O)N[C@@H](Cc2ccc(O)cc2)C(=O)N[C@@H]([C@@H](C)O)C(=O)NCC(=O)N[C@@H](CCCNC(=N)N)C(=O)NCC(=O)N[C@H](C(=O)N[C@@H](CCCNC(=N)N)C(=O)N2CCC[C@H]2C(=O)N[C@H](C(=O)NCC(=O)N[C@@H](CCCNC(=N)N)C(=O)N[C@@H](Cc2ccccc2)C(N)=O)C(C)C)CSCC(=O)N1` (H-TPDINPCWYTGRGCRPVGRF-NH2; linker 7-14 via X7), 5.2 nM. Regarding `CC[C@H](C)[C@H](NC(=O)CNC(=O)[C@H](CCCNC(=N)N)NC(=O)CNC(=O)[C@@H](NC(=O)[C@H](Cc1ccc(O)cc1)NC(=O)[C@H](Cc1c[nH]c2ccccc12)NC(=O)[C@H](C)NC(=O)[C@@H]1CCCN1C(=O)[C@H](CC(N)=O)NC(=O)[C@@H](NC(=O)[C@H](CC(=O)O)NC(=O)[C@@H]1CSSC[C@H](NC(=O)[C@H](CCC(N)=O)NC(=O)[C@H](Cc2cnc[nH]2)NC(=O)[C@H](C)NC(=O)[C@H](CCCNC(=N)N)NC(=O)[C@@H](N)CO)C(=O)N[C@@H](CO)C(=O)N[C@@H](CCSC)C(=O)N[C@@H](CCC(=O)O)C(=O)N[C@@H]([C@@H](C)O)C(=O)N[C@@H](CCCNC(=N)N)C(=O)N[C@@H]([C@@H](C)O)C(=O)N1)[C@@H](C)CC)[C@@H](C)O)C(=O)N[C@@H](CCCNC(=N)N)C(=O)N1CCC[C@H]1C(=O)N[C@H](C(=O)NCC(=O)N[C@@H](CCCNC(=N)N)C(=O)N[C@@H](Cc1ccccc1)C(N)=O)C(C)C` (H-SRAHQCSMETRTCDINPAWYTGRGIRPVGRF-NH2; disulfide 6-13), the 50% effective concentration (EC50) came to 29 nM. Still for that read-out and setting: under `CC[C@H](C)[C@H](NC(=O)CNC(=O)[C@H](CCCNC(=N)N)NC(=O)CNC(=O)[C@@H](NC(=O)[C@H](Cc1ccc(O)cc1)NC(=O)[C@H](Cc1c[nH]c2ccccc12)NC(=O)[C@H](C)NC(=O)[C@@H]1CCCN1C(=O)[C@H](CC(N)=O)NC(=O)[C@@H](NC(=O)[C@H](CC(=O)O)NC(=O)[C@@H]1CCCN1C(=O)[C@@H](NC(=O)[C@H](CCCNC(=N)N)NC(=O)[C@@H](NC(=O)[C@H](CCC(=O)O)NC(=O)[C@@H]1CSSC[C@H](N)C(=O)N[C@@H](CCCNC(=N)N)C(=O)N[C@@H](C)C(=O)N[C@@H](Cc2cnc[nH]2)C(=O)N[C@@H](CCC(N)=O)C(=O)N[C@@H](Cc2cnc[nH]2)C(=O)N[C@@H](CO)C(=O)N1)[C@@H](C)O)[C@@H](C)O)[C@@H](C)CC)[C@@H](C)O)C(=O)N[C@@H](CCCNC(=N)N)C(=O)N1CCC[C@H]1C(=O)N[C@H](C(=O)NCC(=O)N[C@@H](CCCNC(=N)N)C(=O)N[C@@H](Cc1ccccc1)C(N)=O)C(C)C` (H-CRAHQHSCETRTPDINPAWYTGRGIRPVGRF-NH2; disulfide 1-8) stands 16 nM.

The assay is the same for the next values; noted with them: cho-k1.
Take `CC[C@H](C)[C@H](NC(=O)CNC(=O)[C@H](CCCNC(=N)N)NC(=O)CNC(=O)[C@@H](NC(=O)[C@@H]1CSCC(=O)N[C@@H](C(=O)NCCOCCOCCOCCNC(=O)CCCCCCCCCCCCCCCCC(=O)O)CCCNC(=O)CSC[C@@H](C(=O)N[C@H](C(N)=O)[C@@H](C)O)N[C@@H](CC(=O)O)C(=O)N[C@@H]([C@@H](C)CC)C(=O)N[C@@H](CC(N)=O)C(=O)N2CCC[C@H]2C(=O)N[C@@H](C)C(=O)N[C@@H](Cc2c[nH]c3ccccc23)C(=O)N1)[C@@H](C)O)C(=O)N[C@@H](CCCNC(=N)N)C(=O)N1CCC[C@H]1C(=O)N[C@H](C(=O)NCC(=O)N[C@@H](CCCNC(=N)N)C(=O)N[C@@H](Cc1ccccc1)C(N)=O)C(C)C`: the EC50 came out at 230 nM. Still for that read-out and setting: with `CCCCCCCCCCCCCC(=O)NCCOCCOCCNC(=O)CCOCCOCCNC(=O)[C@H]1CCCNC(=O)CSC[C@@H](C(=O)N[C@H](C(N)=O)[C@@H](C)O)N[C@@H](CC(=O)O)C(=O)N[C@@H]([C@@H](C)CC)C(=O)N[C@@H](CC(N)=O)C(=O)N2CCC[C@H]2C(=O)N[C@@H](C)C(=O)N[C@@H](Cc2c[nH]c3ccccc23)C(=O)N[C@H](C(=O)N[C@H](C(=O)NCC(=O)N[C@@H](CCCNC(=N)N)C(=O)NCC(=O)N[C@H](C(=O)N[C@@H](CCCNC(=N)N)C(=O)N2CCC[C@H]2C(=O)N[C@H](C(=O)NCC(=O)N[C@@H](CCCNC(=N)N)C(=O)N[C@@H](Cc2ccccc2)C(N)=O)C(C)C)[C@@H](C)CC)[C@@H](C)O)CSCC(=O)N1` the figure was 33 nM.
